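Each compound was tested at five concentrations against cells in 96-well plates for 48 hours. The concentration for 50% growth inhibition is given as GI50.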 Active and inactive are the calls of the source. No stated cut-off is given here; in the data, active = GI50 up to about 1.1 µM and inactive = higher.
Tests used:
Assay in all cases: growth of human tumour cells (NCI), 48 h
[1] = test system: NCI-H226
[2] = test system: CCRF-CEM
[3] = test system: SF-539
[4] = test system: MDA-N
[5] = test system: PC-3
[6] = test system: HCC 2998
[7] = test system: ACHN
[8] = test system: DU-145
[9] = test system: KM12
[10] = test system: A549
[11] = test system: IGROV-1
[12] = test system: CAKI-1
[13] = test system: SN12C
[14] = test system: SK-OV-3
[15] = test system: EKVX
[16] = test system: 786-0
[17] = test system: NCI-H23
[18] = test system: SNB-75
[19] = test system: SF-295
[20] = test system: SF-268
[21] = test system: NCI-H460
[22] = test system: NCI-H522
[23] = test system: HOP-62
[24] = test system: OVCAR-4
[25] = test system: BT-549
[26] = test system: SNB-19
[27] = test system: SK-MEL-5
[28] = test system: K562
[29] = test system: OVCAR-5
[30] = test system: OVCAR-3
[31] = test system: TK-10
[32] = test system: M14
[33] = test system: HT-29
[34] = test system: SR
[35] = test system: MCF7
[36] = test system: HCT-15
[37] = test system: HL-60
[38] = test system: SK-MEL-2
[39] = test system: HOP-92
[40] = test system: NCI/ADR-RES
[41] = test system: MOLT-4
[42] = test system: SK-MEL-28
[43] = test system: HCT-116
[44] = test system: UACC-62
[45] = test system: OVCAR-8
[46] = test system: SW-620
[47] = test system: UACC-257
[48] = test system: RXF 393
[49] = test system: U-251
[50] = test system: COLO 205
[51] = test system: Malme-3M
[52] = test system: RPMI-8226
[53] = test system: UO-31

Compound: O=C1c2ccccc2C2=Nc3ccncc3CN12
- GI50 [1]: > 100 µM (inactive)
- GI50 [2]: > 100 µM (inactive)
- GI50 [3]: > 100 µM (inactive)
- GI50 [4]: > 100 µM (inactive)
- GI50 [5]: > 100 µM (inactive)
- GI50 [6]: > 100 µM (inactive)
- GI50 [7]: > 100 µM (inactive)
- GI50 [8]: > 100 µM (inactive)
- GI50 [9]: 90.2 µM (inactive)
- GI50 [10]: > 100 µM (inactive)
- GI50 [11]: > 100 µM (inactive)
- GI50 [12]: > 100 µM (inactive)
- GI50 [13]: > 100 µM (inactive)
- GI50 [14]: > 100 µM (inactive)
- GI50 [15]: 25.9 µM (inactive)
- GI50 [16]: > 100 µM (inactive)
- GI50 [17]: > 100 µM (inactive)
- GI50 [18]: 74.5 µM (inactive)
- GI50 [19]: > 100 µM (inactive)
- GI50 [20]: > 100 µM (inactive)
- GI50 [21]: > 100 µM (inactive)
- GI50 [22]: > 100 µM (inactive)
- GI50 [23]: > 100 µM (inactive)
- GI50 [24]: > 100 µM (inactive)
- GI50 [25]: > 100 µM (inactive)
- GI50 [26]: > 100 µM (inactive)
- GI50 [27]: > 100 µM (inactive)
- GI50 [28]: > 100 µM (inactive)
- GI50 [29]: > 100 µM (inactive)
- GI50 [30]: > 100 µM (inactive)
- GI50 [31]: > 100 µM (inactive)
- GI50 [32]: > 100 µM (inactive)
- GI50 [33]: > 100 µM (inactive)
- GI50 [34]: > 100 µM (inactive)
- GI50 [35]: > 100 µM (inactive)
- GI50 [36]: > 100 µM
- GI50 [37]: > 100 µM (inactive)
- GI50 [38]: > 100 µM (inactive)
- GI50 [39]: > 100 µM (inactive)
- GI50 [40]: > 100 µM (inactive)
- GI50 [41]: > 100 µM (inactive)
- GI50 [42]: > 100 µM (inactive)
- GI50 [43]: > 100 µM (inactive)
- GI50 [44]: > 100 µM (inactive)
- GI50 [45]: > 100 µM (inactive)
- GI50 [46]: > 100 µM (inactive)
- GI50 [47]: > 100 µM (inactive)
- GI50 [48]: > 100 µM (inactive)
- GI50 [49]: > 100 µM (inactive)
- GI50 [50]: > 100 µM (inactive)
- GI50 [51]: > 100 µM (inactive)
- GI50 [52]: > 100 µM (inactive)
- GI50 [53]: > 100 µM (inactive)

Source: ChEMBL document CHEMBL1201862, “PubChem BioAssay data set” (2004)
